# In patent US20240391931A1 (Bristol-Myers Squibb Company, priority 2021, published 2024):
# Target: HER2YVMA (Homo sapiens, UniProt P04626, INS775YVMA)
# Assay: HER2 signaling (pHER2) in Hek293-HER2YVMA cells
# Assay type: cell-based
# Design: expressed in transfected cells; host or cells: HEK293 (pool), Ba/F3 (clones), BEAS2B (clones); lentiviral vector pCDH-CMV-MCS-EF1-Neo
# Conditions: 1.5 hr compound, 1% FBS, read-out: HEKYVMA pHER2 EC50
# Description: Cell culture, plasmid cloning, and lentiviral transduction were carried out according to standard procedures. The Human HER2 cDNA construct in pCMV6-Entry for the HER2 wildtype (WT) expression was obtained from Origene. The HER2 cDNA including the 12-nucleotide insertion corresponding to YVMA insertion (HER2YVMA) was codon optimized, synthesized and cloned by GenScript (Piscataway, NJ) in pcDNA3.1. The lentiviral constructs expressing HER2YVMA and HER2 WT were sub-cloned using PCR at System Biosciences (SBI, Mountainview, CA) into lentiviral vectors pCDH-CMV-MCS-EF1-Neo and lentiviral particles were generated.
# Engineered lines expressing HER2YVMA and HER2 WT were prepared in HEK293 (human embryonic kidney cells), Ba/F3 (Interleukin 3 (IL3)-dependent murine pro B cell line), and BEAS2B (primary immortalized human bronchial epithelial cell line). Ba/F3, BEAS2B, and HEK293 cells were obtained from the American Type Culture Collection (ATCC, Manassas, VA). Parental Ba/F3 cells were grown in suspension in complete RPMI 1640 supplemented with 10% FBS and 1% P/S and 10 ng/ml interleukin 3 (IL3, Sigma-Aldrich). Hek293 and BEAS2B cells were grown as monolayers in DMEM supplemented with 10% FBS and 1% P/S. All cells were maintained and propagated in a humidified 5% CO2 incubator at 37° C.
# To generate Ba/F3, BEAS2B, and Hek-293 cells engineered with lentivirus to express HER2 WT or HER2YVMA, the cells were transduced with lentiviruses at multiplicity of infection (MOI) of 1 or 10; transduced cells were selected and maintained with G418 ([…]) (Geneticin, Life Technologies, Carlsbad, CA). Ba/F3 engineered cells were subjected to gradual withdrawal of interleukin 3 (IL-3, Sigma-Aldrich). After selection, IL3 independent Ba/F3 HER2YVMA, and BEAS2B HER2YVMA cells were cloned by limiting dilution. Hek293 HER2YVMA cells were used as pool. HER2 and phospho HER2 levels were confirmed by flow cytometery and immunoassay (MSD, Meso-Scale Discovery, Rockville, Maryland).
# HER2 signaling was assessed in BT474 and N87 cell lines which endogenously overexpress the HER2 wildtype (WT) protein, in NCI-H1781 cells which endogenously expresses a HER2 mutant protein containing a VC insertion in the kinase domain (HER2VC or G776delinsVC), and in engineered cell lines transduced to express the Her2 mutant protein containing the YVMA insertion (Hek293-HER2YVMA and BEAS2B-HER2YVMA).
# BT474, N87, and NCI-H1781 were plated in 96-well tissue-culture treated plates (Corning Costar, Sigma-Aldrich) in full media and incubated overnight. Hek293-HER2YVMA and BEAS2B-HER2YVMA cells were plated in 96-well poly-D-lysine treated plates (BD Bioscience, San Jose, CA). For treatment with test compounds, the media was replaced with corresponding low serum media (1% FBS) containing test compound at 1.1, 0.37, 0.12, 0.041, 0.014, 0.005, 0.0014, 0.0005 μM or DMSO control (0.1%). Cells were incubated with compound for 1.5 hr at 37° C. After compound treatment, the media was removed and cells were lysed for 30 min on ice in complete MSD lysis buffer (prepared using MSD base lysis buffer (Meso-Scale Discovery) supplemented with cOmplete, EDTA-free Protease inhibitor cocktail (Roche), Phosphatase Inhibitor Cocktails 2 and 3 (Sigma-Aldrich), and 1 mM PMSF (Sigma-Aldrich)). Lysates were stored at −70° C. until further analysis.
# HER2 signaling was evaluated using phospho (Tyr1248)/total ErbB2 whole cell lysate MSD plates (Meso-Scale Discovery, Gaithersburg, MD). The phospho HER2 signal was normalized to total HER2 for each sample; results are reported as % DMSO control. The normalized data was fitted using a sigmoidal curve analysis program (Graph Pad Prism version 6) with variable Hill slope to determine EC50 values.
# The HER2 signaling results are provided in Table 4, under columns titled “BT474-pHER2 EC50”, “N87-pHER2 EC50”, and “NCI-H1781-pHER2 EC50”. […]
# Sequence of HER2YVMA (P04626 with tags, fused parts or gaps INS775YVMA): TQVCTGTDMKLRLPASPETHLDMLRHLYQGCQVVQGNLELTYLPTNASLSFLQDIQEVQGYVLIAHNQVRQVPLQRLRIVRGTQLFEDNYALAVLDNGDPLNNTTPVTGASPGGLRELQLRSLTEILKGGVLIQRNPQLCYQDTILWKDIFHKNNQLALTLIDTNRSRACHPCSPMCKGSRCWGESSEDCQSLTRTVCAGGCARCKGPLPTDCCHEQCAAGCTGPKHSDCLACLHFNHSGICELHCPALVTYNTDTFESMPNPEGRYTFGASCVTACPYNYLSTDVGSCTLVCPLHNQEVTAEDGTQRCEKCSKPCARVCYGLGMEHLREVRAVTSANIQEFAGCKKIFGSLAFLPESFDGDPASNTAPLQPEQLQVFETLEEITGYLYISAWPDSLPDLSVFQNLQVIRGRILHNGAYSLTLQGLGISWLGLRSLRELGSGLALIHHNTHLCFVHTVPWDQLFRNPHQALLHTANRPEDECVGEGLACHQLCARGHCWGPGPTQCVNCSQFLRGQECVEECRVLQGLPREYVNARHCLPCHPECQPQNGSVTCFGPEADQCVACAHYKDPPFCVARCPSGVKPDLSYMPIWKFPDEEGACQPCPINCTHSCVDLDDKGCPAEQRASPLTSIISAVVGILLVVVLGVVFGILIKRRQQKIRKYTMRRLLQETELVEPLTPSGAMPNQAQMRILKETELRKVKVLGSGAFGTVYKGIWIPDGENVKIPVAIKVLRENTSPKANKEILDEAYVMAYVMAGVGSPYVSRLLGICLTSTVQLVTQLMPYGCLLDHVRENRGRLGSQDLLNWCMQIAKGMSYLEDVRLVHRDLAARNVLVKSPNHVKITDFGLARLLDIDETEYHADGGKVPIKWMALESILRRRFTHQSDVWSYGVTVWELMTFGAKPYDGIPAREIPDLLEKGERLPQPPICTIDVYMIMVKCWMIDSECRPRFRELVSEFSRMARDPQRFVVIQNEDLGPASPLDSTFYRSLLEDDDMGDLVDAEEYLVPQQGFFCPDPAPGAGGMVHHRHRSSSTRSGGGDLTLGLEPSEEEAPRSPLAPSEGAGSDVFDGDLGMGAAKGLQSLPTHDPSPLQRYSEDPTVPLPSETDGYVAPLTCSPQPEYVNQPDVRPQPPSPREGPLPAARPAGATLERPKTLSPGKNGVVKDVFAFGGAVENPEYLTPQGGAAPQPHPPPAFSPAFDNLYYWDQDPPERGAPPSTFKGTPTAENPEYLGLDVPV
row,EC50,Compound
1,< 100 nM,"Cc1cc(Nc2ncnc3sc4c(c23)CCN(C(=O)/C=C/CN(C)C)C4)ccc1Oc1ccc2scnc2c1 [Compound 107, (E)-1-(4-((4-(benzo[d]thiazol-5-yloxy)-3-methylphenyl)amino)-5,8-dihydropyrido[4′,3′:4,5]thieno[2,3-d]pyrimidin-7(6H)-yl)-4-(dimethylamino)but-2-en-1-one]"
2,< 100 nM,"Cc1ccc(Oc2ccc(Nc3ncnc4sc5c(c34)CN(C(=O)/C=C/CN(C)C)CC5)cc2C)cn1 [Compound 108, (E)-4-(Dimethylamino)-1-(4-((3-methyl-4-((6-methylpyridin-3-yl)oxy)phenyl)amino)-7,8-dihydropyrido[3′,4′:4,5]thieno[2,3-d]pyrimidin-6(5H)-yl)but-2-en-1-one]"
3,100 to 350 nM,"Cc1cc(Nc2ncnc3sc4c(c23)CN(C(=O)/C=C/CN(C)C)C4)ccc1Oc1ccc2ncnn2c1 [Compound 111, (E)-1-(4-((4-([1,2,4]Triazolo[1,5-a]pyridin-6-yloxy)-3-methylphenyl)amino)-5H-pyrrolo[3′,4′:4,5]thieno[2,3-d]pyrimidin-6(7H)-yl)-4-(dimethylamino)but-2-en-1-one]"
4,< 100 nM,Cc1ccc(Oc2ccc(Nc3ncnc4sc5c(c34)CCN(C(=O)/C=C/CN3CCC[C@H](n4cccn4)C3)C5)cc2C)cn1 [Compound 112]
5,< 100 nM,Cc1ccc(Oc2ccc(Nc3ncnc4sc5c(c34)CCN(C(=O)/C=C/CN3CCCC(c4nccs4)C3)C5)cc2C)cn1 (centres unmarked) [Compound 113]
6,< 100 nM,Cc1ccc(Oc2ccc(Nc3ncnc4sc5c(c34)CCN(C(=O)/C=C/CN3CCC(O)C(C)(C)C3)C5)cc2C)cn1 (centres unmarked) [Compound 114]
7,< 100 nM,Cc1ccc(Oc2ccc(Nc3ncnc4sc5c(c34)CCN(C(=O)/C=C/CN3CCCC34CCC4)C5)cc2C)cn1 [Compound 115]
8,< 100 nM,Cc1ccc(Oc2ccc(Nc3ncnc4sc5c(c34)CCN(C(=O)/C=C/CN3CC(C)OC(C)C3C)C5)cc2C)cn1 (centres unmarked) [Compound 117]
9,< 100 nM,Cc1ccc(Oc2ccc(Nc3ncnc4sc5c(c34)CCN(C(=O)/C=C/CN3CC4CC4(CO)C3)C5)cc2C)cn1 (centres unmarked) [Compound 118]
10,< 100 nM,Cc1ccc(Oc2ccc(Nc3ncnc4sc5c(c34)CCN(C(=O)/C=C/CN3CCCCC3(C)CO)C5)cc2C)cn1 (centres unmarked) [Compound 119]
11,< 100 nM,Cc1ccc(Oc2ccc(Nc3ncnc4sc5c(c34)CCN(C(=O)/C=C/CN3C[C@H]4C[C@@H]3CC4C#N)C5)cc2C)cn1 (some centres unmarked) [Compound 120]
12,< 100 nM,Cc1ccc(Oc2ccc(Nc3ncnc4sc5c(c34)CCN(C(=O)/C=C/CN3CC(C)(C)OC(C)(C)C3)C5)cc2C)cn1 [Compound 121]
13,< 100 nM,CC[C@H](NC/C=C/C(=O)N1CCc2c(sc3ncnc(Nc4ccc(Oc5ccc(C)nc5)c(C)c4)c23)C1)C(F)(F)F [Compound 122]
14,< 100 nM,Cc1ccc(Oc2ccc(Nc3ncnc4sc5c(c34)CCN(C(=O)/C=C/CN3CC4(CCCC4)C3)C5)cc2C)cn1 [Compound 123]
15,< 100 nM,Cc1ccc(Oc2ccc(Nc3ncnc4sc5c(c34)CCN(C(=O)/C=C/CN3CC[C@H](F)C3)C5)cc2C)cn1 [Compound 124]
16,< 100 nM,"COc1ccc(Oc2ccc(Nc3ncnc4sc5c(c34)CN(C(=O)/C=C/CN(C)C)C5)cc2C)cn1 [Compound 128, (E)-4-(dimethylamino)-1-(4-((4-((6-methoxypyridin-3-yl)oxy)-3-methylphenyl)amino)-5,7-dihydro-6H-pyrrolo[3′,4′:4,5]thieno[2,3-d]pyrimidin-6-yl)but-2-en-1-one]"
17,< 100 nM,"Cc1ccc(Oc2ccc(Nc3ncnc4sc5c(c34)CN(C(=O)/C=C/CN(C)C)C5)cc2Cl)cn1 [Compound 129, (E)-1-(4-((3-Chloro-4-((6-methylpyridin-3-yl)oxy)phenyl)amino)-5H-pyrrolo[3′,4′:4,5]thieno[2,3-d]pyrimidin-6(7H)-yl)-4-(dimethylamino)but-2-en-1-one]"
18,< 100 nM,"Cc1cc(Nc2ncnc3sc4c(c23)CN(C(=O)/C=C/CN(C)C)C4)ccc1Oc1ccn2ncnc2c1 [Compound 130, (E)-1-(4-((4-([1,2,4]Triazolo[1,5-a]pyridin-7-yloxy)-3-methylphenyl)amino)-5H-pyrrolo[3′,4′:4,5]thieno[2,3-d]pyrimidin-6(7H)-yl)-4-(dimethylamino)but-2-en-1-one]"
19,< 100 nM,CCN(CC)C/C=C/C(=O)N1CCc2c(sc3ncnc(Nc4ccc(Oc5ccc(C)nc5)c(C)c4)c23)C1 [Compound 131]
20,< 100 nM,Cc1ccc(Oc2ccc(Nc3ncnc4sc5c(c34)CCN(C(=O)/C=C/CN3CC[C@@H](CO)C3)C5)cc2C)cn1 [Compound 132]
21,< 100 nM,Cc1ccc(Oc2ccc(Nc3ncnc4sc5c(c34)CCN(C(=O)/C=C/CN3CC[C@H](CO)C3)C5)cc2C)cn1 [Compound 133]
22,100 to 350 nM,Cc1ccc(Oc2ccc(Nc3ncnc4sc5c(c34)CCN(C(=O)/C=C/CN3CC(CO)(CO)C3)C5)cc2C)cn1 [Compound 134]
23,100 to 350 nM,Cc1ccc(Oc2ccc(Nc3ncnc4sc5c(c34)CCN(C(=O)/C=C/CN3CCC(CO)(CO)CC3)C5)cc2C)cn1 [Compound 135]
24,< 100 nM,Cc1ccc(Oc2ccc(Nc3ncnc4sc5c(c34)CCN(C(=O)/C=C/CN3CCO[C@H](CO)C3)C5)cc2C)cn1 [Compound 136]
25,< 100 nM,CCN(CC)C/C=C/C(=O)N1CCc2c(sc3ncnc(Nc4ccc(Oc5ccc(OC)nc5)c(C)c4)c23)C1 [Compound 137]

row,Compound,EC50
1,"Cc1cc(Nc2ncnc3sc4c(c23)CCN(C(=O)/C=C/CN(C)C)C4)ccc1Oc1ccc2nccn2c1 [Compound 109, (E)-4-(dimethylamino)-1-(4-((4-(imidazo[1,2-a]pyridin-6-yloxy)-3-methylphenyl)amino)-5,6-dihydropyrido[4′,3′:4,5]thieno[2,3-d]pyrimidin-7(8H)-yl)but-2-en-1-one]",< 100 nM
2,"Cc1cn2ccc(Oc3ccc(Nc4ncnc5sc6c(c45)CCN(C(=O)/C=C/CN(C)C)C6)cc3C)cc2n1 [Compound 110, (E)-4-(dimethylamino)-1-(4-((3-methyl-4-((2-methylimidazo[1,2-a]pyridin-7-yl)oxy)phenyl)amino)-5,8-dihydropyrido[4′,3′:4,5]thieno[2,3-d]pyrimidin-7(6H)-yl)but-2-en-1-one]",100 to 350 nM
3,"Cc1cc(Nc2ncnc3sc4c(c23)CCN(C(=O)/C=C/CN(C)C)C4)ccc1Oc1ccn2ccnc2c1 [Compound 126, (E)-4-(dimethylamino)-1-(4-((4-(imidazo[1,2-a]pyridin-7-yloxy)-3-methylphenyl)amino)-5,8-dihydropyrido[4′,3′:4,5]thieno[2,3-d]pyrimidin-7(6H)-yl)but-2-en-1-one]",< 100 nM
4,"Cc1nc2cc(Oc3ccc(Nc4ncnc5sc6c(c45)CCN(C(=O)/C=C/CN(C)C)C6)cc3C)ccn2n1 [Compound 127, (E)-4-(dimethylamino)-1-(4-((3-methyl-4-((2-methyl-[1,2,4]triazolo[1,5-a]pyridin-7-yl)oxy)phenyl)amino)-5,6-dihydropyrido[4′,3′:4,5]thieno[2,3-d]pyrimidin-7(8H)-yl)but-2-en-1-one]",< 100 nM
